Source: US7053070B2, “Pyrido[2,3-d]pyrimidine-2,7-diamine kinase inhibitors” (Warner-Lambert Company, priority 2000, dated 2006)
pIC50: −log10 of the molar value.

Legend:
cdk2/cyclinE = cdk2/cyclinE (Homo sapiens, UniProt P24941); assay: Cyclin dependent kinase 2 assay (cdk2/cyclinE), 32P incorporation, filter plate; assay type: biochemical; conditions: retinoblastoma substrate, 12 mM ATP, 25° C., 15 minutes; read-out: Inhibition of Cdks: IC50 Cdk2/E
Procedure: (§1) Cyclin Dependent Kinase 1 and 2 Assays (cdk1/cyclinB, cdk2/cyclinA, cdk2/cyclinE)
(§2) Enzyme assays for IC50 determinations and kinetic evaluation are performed in a 96-well filter plate (Millipore MADVN6550) in a total volume of 0.1 mL of 20 mM TRIS (tris[hydroxymethyl]aminomethane), at pH 7.4, 50 mM NaCl, 1 mM dithiothreitol, 10 mM MgCl2, […] containing 0.25 μCi of [^32P]ATP, 20 ng of enzyme (either cdk1/B, cdk2/A, or cdk2E), 1 μg retinoblastoma and appropriate dilutions of the particular invention compound. All components except the ATP are added to the wells, and the plate is placed on a plate mixer for 2 minutes. The reaction is begun by addition of [^32P]ATP, and the plate is incubated at 25° C. for 15 minutes. The reaction is terminated by addition of 0.1 mL of 20% TCA. The plate is kept at 4° C. for at least 1 hour to allow the substrate to precipitate. The wells are then washed 5 times with 0.2 mL of 10% TCA and ^32P incorporation determined with a beta plate counter (Wallac Inc., Gaithersburg, Md.).

cdk4/cyclinD = cdk4/cyclinD (Homo sapiens, UniProt P11802); assay: Cyclin Dependent Kinase 4 (cdk-4) Assay, 32P incorporation, filter plate; assay type: biochemical; conditions: retinoblastoma substrate, 25 μM ATP, 25° C., 15 minutes; read-out: Inhibition of Cdks: IC50 Cdk4D
Procedure: Cyclin Dependent Kinase 4 (cdk-4) Assay
Enzyme assays for IC50 determinations and kinetic evaluation are performed in 96-well filter plates (Millipore MADVN6550). The total volume is 0.1 mL containing a final concentration of 20 mM TRIS (tris[hydroxymethyl]aminomethane), at pH 7.4, 50 mM NaCl, 1 mM dithiothreitol, 10 mM MgCl2, 25 μM ATP containing 0.25 μCi of [^32P]ATP, 20 ng of cdk4, 1 μg of retinoblastoma, and appropriate dilutions of a compound of the present invention. All components except the ATP are added to the wells, and the plate is placed on a plate mixer for 2 minutes. The reaction is started by adding [^32P]ATP, and the plate is incubated at 25° C. for 15 minutes. The reaction is terminated by addition of 0.1 mL of 20% trichloroacetic acid (TCA). The plate is kept at 4° C. for at least 1 hour to allow the substrate to precipitate. The wells are then washed 5 times with 0.2 mL of 10% TCA and ^32P incorporation is determined with a beta plate counter (Wallac Inc., Gaithersburg, Md.).

cdk2/cyclinA = cdk2/cyclinA (Homo sapiens, UniProt P24941); assay: Cyclin dependent kinase 2 assay (cdk2/cyclinA), 32P incorporation, filter plate; assay type: biochemical; conditions: retinoblastoma substrate, 12 mM ATP, 25° C., 15 minutes; read-out: Inhibition of Cdks: IC50 Cdk2/A
Procedure: as §1, §2

cdk1/cyclinB = cdk1/cyclinB (Homo sapiens, UniProt P06493); assay: Cyclin dependent kinase 1 assay (cdk1/cyclinB), 32P incorporation, filter plate; assay type: biochemical; conditions: retinoblastoma substrate, 12 mM ATP, 25° C., 15 minutes; read-out: Inhibition of Cdks: IC50 Cdk1/B
Procedure: as §1, §2

cdk1/cyclinB, sequence (P06493 whole entry, species assumed): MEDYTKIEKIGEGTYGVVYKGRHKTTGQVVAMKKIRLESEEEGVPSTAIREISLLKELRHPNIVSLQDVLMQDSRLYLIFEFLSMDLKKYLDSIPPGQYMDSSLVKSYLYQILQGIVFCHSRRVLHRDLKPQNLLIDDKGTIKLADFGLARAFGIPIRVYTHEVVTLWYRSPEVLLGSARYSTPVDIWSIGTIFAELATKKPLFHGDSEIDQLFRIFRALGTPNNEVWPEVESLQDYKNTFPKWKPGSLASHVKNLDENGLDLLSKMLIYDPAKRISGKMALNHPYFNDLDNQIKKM
cdk1/cyclinB, sequence (P14635 whole entry partner, species assumed): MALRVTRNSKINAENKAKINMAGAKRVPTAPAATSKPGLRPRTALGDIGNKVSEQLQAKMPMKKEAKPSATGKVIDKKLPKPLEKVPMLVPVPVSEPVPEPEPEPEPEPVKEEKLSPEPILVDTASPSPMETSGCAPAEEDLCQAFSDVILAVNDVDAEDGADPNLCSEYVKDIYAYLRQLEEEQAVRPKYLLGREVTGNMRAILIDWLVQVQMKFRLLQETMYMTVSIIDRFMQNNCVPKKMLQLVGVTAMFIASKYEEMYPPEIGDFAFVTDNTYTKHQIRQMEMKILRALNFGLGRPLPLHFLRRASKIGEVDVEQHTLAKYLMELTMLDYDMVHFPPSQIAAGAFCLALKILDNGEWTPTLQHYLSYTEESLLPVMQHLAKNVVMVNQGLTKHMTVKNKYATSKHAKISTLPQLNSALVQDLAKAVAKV
cdk4/cyclinD, sequence (P11802 whole entry, species assumed): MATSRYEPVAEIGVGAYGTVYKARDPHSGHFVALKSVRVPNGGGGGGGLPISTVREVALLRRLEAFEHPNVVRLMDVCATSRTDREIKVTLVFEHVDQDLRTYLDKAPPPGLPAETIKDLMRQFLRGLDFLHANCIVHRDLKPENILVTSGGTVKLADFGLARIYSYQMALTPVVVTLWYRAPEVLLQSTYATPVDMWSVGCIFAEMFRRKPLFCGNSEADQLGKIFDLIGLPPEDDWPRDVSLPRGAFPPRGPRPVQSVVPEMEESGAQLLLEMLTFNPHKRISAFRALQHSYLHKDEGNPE
cdk4/cyclinD, sequence (P24385 whole entry partner, species assumed): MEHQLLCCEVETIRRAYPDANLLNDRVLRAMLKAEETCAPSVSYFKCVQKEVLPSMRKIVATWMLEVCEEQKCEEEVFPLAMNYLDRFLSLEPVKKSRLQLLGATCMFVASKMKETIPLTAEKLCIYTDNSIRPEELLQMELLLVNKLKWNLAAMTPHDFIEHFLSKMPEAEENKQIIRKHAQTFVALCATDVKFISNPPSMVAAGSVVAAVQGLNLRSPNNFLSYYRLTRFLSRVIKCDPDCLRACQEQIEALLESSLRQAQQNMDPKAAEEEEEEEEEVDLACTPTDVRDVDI

Structure (SMILES) | pIC50 (cdk2/cyclinE) | pIC50 (cdk4/cyclinD) | melting point | pIC50 (cdk2/cyclinA) | pIC50 (cdk1/cyclinB)
C[C@@H]1CN(c2ccc(Nc3ncc4cc(Cl)c(NC(=O)NC(C)(C)C)nc4n3)cc2)C[C@H](C)N1 [Compound 104, 1-tert-Butyl-3-{6-chloro-2-[4-(cis-3,5-dimethyl-piperazin-1-yl)-phenylamino]-pyrido[2,3-d]pyrimidin-7-yl}-urea] | < 5.30 | 6.73 | 205 °C (dec.) | < 5.30 | < 5.30
O=C(NCCCN1CCOCC1)Nc1ccc2cnc(Nc3ccc(F)cc3)nc2n1 [Compound 96, 1-[2-(4-Fluoro-phenylamino)-pyrido[2,3-d]pyrimidin-7-yl]-3-(3-morpholin-4-yl-propyl)-urea] | 5.81 | < 5.30 | 253 to 256 °C | 5.96 | 5.20
C[C@@H]1CN(c2ccc(Nc3ncc4ccc(NC(=O)NC5CCCCC5)nc4n3)cc2)C[C@H](C)N1 [Compound 50, 1-Cyclohexyl-3-{2-[4-(cis-3,5-dimethyl-piperazin-1-yl)-phenylamino]-pyrido[2,3-d]pyrimidin-7-yl}-urea] | 7.46 | 8.15 | 228 °C (dec.) | 7.66 | 7.16
CC(=O)N1CCN(c2ccc(Nc3ncc4ccc(NC(=O)NCCCN5CCOCC5)nc4n3)cc2)CC1 [Compound 103, 1-{2-[4-(4-Acetyl-piperazin-1-yl)-phenylamino]-pyrido[2,3-d]pyrimidin-7-yl}-3-(3-morpholin-4-yl-propyl)-urea] | < 5.30 | < 5.30 | 221 to 225 °C (dec.) | < 5.30 | < 5.30
O=C(Nc1ccc2cnc(Nc3ccc(N4CCNCC4)cc3)nc2n1)N1CCNCC1 [Compound 87, Piperazine-1-carboxylic acid [2-(4-piperazin-1-yl-phenylamino)-pyrido[2,3-d]pyrimidin-7-yl]-amide] | < 5.30 | < 5.30 | 220 °C (dec.) | < 5.30 | < 5.30
CN(C)CCNC(=O)Nc1ccc2cnc(Nc3ccc(F)cc3)nc2n1 [Compound 99, 1-(2-Dimethylamino-ethyl)-3-[2-(4-fluoro-phenylamino)-pyrido[2,3-d]pyrimidin-7-yl]-urea] | 6.39 | < 5.30 | 251 to 255 °C | 5.99 | 5.74
O=C(NCCCO)Nc1ccc2cnc(Nc3ccc(N4CCNCC4)cc3)nc2n1 [Compound 81, 1-(3-Hydroxy-propyl)-3-[2-(4-piperazin-1-yl-phenylamino)-pyrido[2,3-d]pyrimidin-7-yl]-urea] | 5.49 | 6.30 | 183 °C (dec.) | 5.81 | 5.58
C[C@@H]1CN(c2ccc(Nc3ncc4ccc(NC(=O)NC(C)(C)C)nc4n3)cc2)C[C@H](C)N1 [Compound 49, 1-tert-Butyl-3-{2-[4-(cis-3,5-dimethyl-piperazin-1-yl)-phenylamino]-pyrido[2,3-d]pyrimidin-7-yl}-urea] | 6.32 | 7.30 | 245 °C (dec.) | 6.28 | 6.04
CC(C)C[C@@H](CO)NC(=O)Nc1ccc2cnc(Nc3ccc(N4CCNCC4)cc3)nc2n1 [Compound 83, 1-((S)-1-Hydroxymethyl-3-methyl-butyl)-3-[2-(4-piperazin-1-yl-phenylamino)-pyrido[2,3-d]pyrimidin-7-yl]-urea] | 6.50 | 7.26 | 185 °C (dec.) | 6.52 | 6.40
O=C(Nc1ccc2cnc(Nc3ccc(N4CCNCC4)cc3)nc2n1)N1CCOCC1 [Compound 85, Morpholine-4-carboxylic acid [2-(4-piperazin-1-yl-phenylamino)-pyrido[2,3-d]pyrimidin-7-yl]-amide] | < 5.30 | < 5.30 | 190 °C (dec.) | < 5.30 | < 5.30
CCCNC(=O)Nc1cc(C)c2cnc(Nc3ccc(N4CCNCC4)cc3)nc2n1 [Compound 111, 1-[5-Methyl-2-(4-piperazin-1-yl-phenylamino)-pyrido[2,3-d]pyrimidin-7-yl]-3-propyl-urea] | < 5.30 | < 5.30 | 223 to 225 °C | < 5.30 | < 5.30
O=C(Nc1ccc2cnc(Nc3ccc(N4CCNCC4)cc3)nc2n1)N(CCO)CCO [Compound 89, 1,1-Bis-(2-hydroxy-ethyl)-3-[2-(4-piperazin-1-yl-phenylamino)-pyrido[2,3-d]pyrimidin-7-yl]-urea] | < 5.30 | < 5.30 | 185 °C (dec.) | < 5.30 | < 5.30
Cc1cc(NC(=O)NC2CCCC2)nc2nc(Nc3ccc(N4CCNCC4)cc3)ncc12 [Compound 53, 1-Cyclopentyl-3-[5-methyl-2-(4-piperazin-1-yl-phenylamino)-pyrido[2,3-d]pyrimidin-7-yl]-urea] | < 5.30 | < 5.30 | 234 °C (dec.) | < 5.30 | < 5.30
CN(C(=O)Nc1ccc2cnc(Nc3ccc(N4CCNCC4)cc3)nc2n1)C1CCCCC1 [Compound 65, 1-Cyclohexyl-1-methyl-3-[2-(4-piperazin-1-yl-phenylamino)-pyrido[2,3-d]pyrimidin-7-yl]-urea] | < 5.30 | < 5.30 | 177 °C (dec.) | < 5.30 | < 5.30
CNC(=O)Nc1cc(C)c2cnc(Nc3ccc(N4CCNCC4)cc3)nc2n1 [Compound 64, 1-Methyl-3-[5-methyl-2-(4-piperazin-1-yl-phenylamino)-pyrido[2,3-d]pyrimidin-7-yl]-urea] | < 5.30 | < 5.30 | 204 to 206 °C (dec.) | < 5.30 | < 5.30
Cc1cc(NC(=O)NC2CCCCC2)nc2nc(Nc3ccc(N4CCNCC4)cc3)ncc12 [Compound 12, 1-Cyclohexyl-3-[5-methyl-2-(4-piperazin-1-yl-phenylamino)-pyrido[2,3-d]pyrimidin-7-yl]-urea] | < 5.30 | 5.68 | 238 °C (dec.) | < 5.30 | < 5.30
Cc1cc(NS(=O)(=O)N(C)C)nc2nc(Nc3ccc(N4CCNCC4)cc3)ncc12 [Compound 71] | < 5.30 | < 5.30 | 228 to 230 °C (dec.) | < 5.30 | < 5.30
O=C(NCCO)Nc1ccc2cnc(Nc3ccc(F)cc3)nc2n1 [Compound 97, 1-[2-(4-Fluoro-phenylamino)-pyrido[2,3-d]pyrimidin-7-yl]-3-(2-hydroxy-ethyl)-urea] | 6.46 | < 5.30 | 238 to 240 °C | 6.56 | 6.06
CC(C)[C@H](CO)NC(=O)Nc1ccc2cnc(Nc3ccc(N4CCNCC4)cc3)nc2n1 [Compound 88, 1-((R)-1-Hydroxymethyl-2-methyl-propyl)-3-[2-(4-piperazin-1-yl-phenylamino)-pyrido[2,3-d]pyrimidin-7-yl]-urea] | 7.26 | 7.60 | 200 °C (dec.) | 7.37 | 6.38
C[C@@H]1CN(c2ccc(Nc3ncc4cc(F)c(NC(=O)NC5CCCCC5)nc4n3)cc2)C[C@H](C)N1 [Compound 52, 1-Cyclohexyl-3-{2-[4-(cis-3,5-dimethyl-piperazin-1-yl)-phenylamino]-6-fluoro-pyrido[2,3-d]pyrimidin-7-yl}-urea] | 6.90 | 7.57 | 227 to 229 °C | 6.67 | 6.33
